ChEMBL document CHEMBL1201862, “PubChem BioAssay data set” (2004)
Activity calls are given as the source filed them.

Columns and labels:
Interleukin-8 = molecular target: T1, Interleukin-8 (Homo sapiens, UniProt P10145); test: Dose Response confirmation of uHTS small molecule hits for cystic fibrosis induced NFkb Inhibitors in a PAF-induced IL8 counterscreen.; type: functional; conditions: read-out: IC50_Mean
T1 sequence (P10145 whole entry): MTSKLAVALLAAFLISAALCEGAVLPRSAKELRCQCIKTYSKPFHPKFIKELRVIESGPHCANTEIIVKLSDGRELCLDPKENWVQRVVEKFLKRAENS

[1] = activation of miR-122 Renilla sensor silencing – cell-based, Huh7 psiCHECK-miR122, Renilla luciferase, cherry-picked, dose response (AID 651956); type: functional;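 further: huh7 hepatoma cells stably carrying a psiCHECK-2 miR-122 sensor plasmid; renilla luciferase signal reporting endogenous miR-122 activity after 48 h compound exposure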
[2] = general mammalian cell viability loss – inhibitor set, cherry-pick, set 2, cytotoxicity control for miR-122 modulator project, dose response (AID 720697); type: functional, cell-based
[3] = general mammalian cell viability loss – activator set, cherry-pick, cytotoxicity control for miR-122 modulator project, dose response (AID 720690); type: functional, cell-based;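 further: HEK293T human cells scored for general mammalian cytotoxicity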
[4] = molecular target: 26S proteasome non-ATPase regulatory subunit 14 (Homo sapiens, UniProt O00487); test: inhibition of proteasome subunit RPN11 – biochemical, fluorescence polarization, uHTS hits, confirmation (AID 602368); type: functional
[5] = molecular target: 72 kDa type IV collagenase (Homo sapiens, UniProt P08253); test: Dose Response validation of uHTS RPN11 inhibitor hits using a MMP-2 Fluorescence assay.; type: functional
Prothrombin = Prothrombin (Bos taurus, UniProt P00735); test: thrombin protease inhibitors – biochemical, fluorescence polarization, uHTS hits, dose response (AID 602369); type: functional
[6] = molecular target: T2, Small ubiquitin-related modifier 1 (Homo sapiens, UniProt P63165); test: SUMO1 protein interaction blockers, potency – biochemical, fluorescence polarization, uHTS hits, dose response (AID 624382); type: functional; conditions: read-out: IC50_Mean
[7] = molecular target: T3, Low molecular weight phosphotyrosine protein phosphatase (Homo sapiens, UniProt P24666); type: functional; conditions: read-out: IC50_Mean
T3 sequence (P24666 whole entry): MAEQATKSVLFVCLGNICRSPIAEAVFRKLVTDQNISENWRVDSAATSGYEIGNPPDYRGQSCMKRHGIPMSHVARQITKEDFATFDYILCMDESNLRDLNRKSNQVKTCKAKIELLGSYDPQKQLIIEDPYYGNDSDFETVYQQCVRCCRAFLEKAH

[8] = molecular target: T2, Small ubiquitin-related modifier 1; test: SUMO1 protein-protein binding blockers, potency – biochemical, FRET, dose response (AID 624383); type: functional; conditions: read-out: IC50_Mean
[9] = molecular target: T3, Low molecular weight phosphotyrosine protein phosphatase; type: functional; conditions: read-out: IC50_Mean; remark: listed apart in the source
[10] = molecular target: T4, Tyrosine-protein phosphatase non-receptor type 22 (Homo sapiens, UniProt Q9Y2R2); test: PTPN22 enzyme inhibitors – biochemical, fluorescence, LYP catalytic domain, selectivity assay for LMPTP inhibitor project, dose response (AID 652006); type: functional; conditions: read-out: IC50_Mean
T4 sequence (Q9Y2R2 whole entry): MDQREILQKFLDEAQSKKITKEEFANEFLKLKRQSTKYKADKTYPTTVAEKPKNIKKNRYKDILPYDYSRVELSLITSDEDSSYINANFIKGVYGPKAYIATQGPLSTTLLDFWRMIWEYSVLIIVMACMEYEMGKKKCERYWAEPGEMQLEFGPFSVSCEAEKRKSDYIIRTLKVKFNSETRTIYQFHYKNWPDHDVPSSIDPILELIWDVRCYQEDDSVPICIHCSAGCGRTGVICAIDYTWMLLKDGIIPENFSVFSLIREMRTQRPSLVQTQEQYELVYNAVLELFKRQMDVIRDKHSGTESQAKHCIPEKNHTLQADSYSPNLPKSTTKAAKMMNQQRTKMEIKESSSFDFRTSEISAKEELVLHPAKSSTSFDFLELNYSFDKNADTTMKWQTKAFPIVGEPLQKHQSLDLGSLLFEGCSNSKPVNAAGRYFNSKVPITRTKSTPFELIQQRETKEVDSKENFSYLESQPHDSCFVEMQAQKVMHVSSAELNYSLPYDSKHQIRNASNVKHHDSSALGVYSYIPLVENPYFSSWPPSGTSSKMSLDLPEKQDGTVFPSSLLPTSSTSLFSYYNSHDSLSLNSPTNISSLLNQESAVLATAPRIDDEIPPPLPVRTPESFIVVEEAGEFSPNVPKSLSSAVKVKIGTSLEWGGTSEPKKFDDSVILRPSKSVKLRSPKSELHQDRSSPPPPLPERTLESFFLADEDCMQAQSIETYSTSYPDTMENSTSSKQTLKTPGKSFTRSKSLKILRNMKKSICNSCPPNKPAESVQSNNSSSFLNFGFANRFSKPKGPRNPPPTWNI

[11] = Trypanosoma cruzi growth suppression in host cells – NIH3T3 host cells, beta-gal luminescence, confirmation (AID 2044); type: functional, cell-based;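 further: intracellular parasites grown in NIH/3T3 mouse fibroblasts as host cells; luminescent beta-galactosidase reporter signal from transgenic T. cruzi replicating inside host cells; inhibitors lower the luminescence signal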
[12] = NIH3T3 cell viability loss – ATP luminescence, mouse fibroblasts, counter-screen, dose response (AID 2010); type: functional, cell-based;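 further: cells exposed to compound for about 90 hours before reading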
[13] = molecular target: ADP-ribosylation factor GTPase-activating protein 1 (Rattus norvegicus, UniProt Q62848); test: Fluorescence polarization-based biochemical high throughput dose response screening assay to identify inhibitors of ADP-ribosylation factor GTPase activating protein 1 (ARFGAP1).; type: functional
Sequence of ADP-ribosylation factor GTPase-activating protein 1 (Q62848 whole entry): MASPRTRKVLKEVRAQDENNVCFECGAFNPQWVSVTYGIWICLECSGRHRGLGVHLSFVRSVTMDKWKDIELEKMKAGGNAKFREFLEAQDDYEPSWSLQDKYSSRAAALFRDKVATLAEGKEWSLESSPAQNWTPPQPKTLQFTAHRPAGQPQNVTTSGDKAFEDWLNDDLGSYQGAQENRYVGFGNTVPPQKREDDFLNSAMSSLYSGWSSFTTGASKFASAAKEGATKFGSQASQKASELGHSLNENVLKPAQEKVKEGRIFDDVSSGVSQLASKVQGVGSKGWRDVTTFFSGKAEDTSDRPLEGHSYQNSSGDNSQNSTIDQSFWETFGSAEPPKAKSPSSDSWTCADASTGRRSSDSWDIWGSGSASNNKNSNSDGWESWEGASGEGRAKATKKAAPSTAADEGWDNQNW

T2 sequence (P63165 whole entry): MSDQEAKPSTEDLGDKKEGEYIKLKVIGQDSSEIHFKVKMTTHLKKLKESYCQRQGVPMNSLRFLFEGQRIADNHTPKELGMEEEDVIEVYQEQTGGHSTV
Sequence of 72 kDa type IV collagenase (P08253 whole entry): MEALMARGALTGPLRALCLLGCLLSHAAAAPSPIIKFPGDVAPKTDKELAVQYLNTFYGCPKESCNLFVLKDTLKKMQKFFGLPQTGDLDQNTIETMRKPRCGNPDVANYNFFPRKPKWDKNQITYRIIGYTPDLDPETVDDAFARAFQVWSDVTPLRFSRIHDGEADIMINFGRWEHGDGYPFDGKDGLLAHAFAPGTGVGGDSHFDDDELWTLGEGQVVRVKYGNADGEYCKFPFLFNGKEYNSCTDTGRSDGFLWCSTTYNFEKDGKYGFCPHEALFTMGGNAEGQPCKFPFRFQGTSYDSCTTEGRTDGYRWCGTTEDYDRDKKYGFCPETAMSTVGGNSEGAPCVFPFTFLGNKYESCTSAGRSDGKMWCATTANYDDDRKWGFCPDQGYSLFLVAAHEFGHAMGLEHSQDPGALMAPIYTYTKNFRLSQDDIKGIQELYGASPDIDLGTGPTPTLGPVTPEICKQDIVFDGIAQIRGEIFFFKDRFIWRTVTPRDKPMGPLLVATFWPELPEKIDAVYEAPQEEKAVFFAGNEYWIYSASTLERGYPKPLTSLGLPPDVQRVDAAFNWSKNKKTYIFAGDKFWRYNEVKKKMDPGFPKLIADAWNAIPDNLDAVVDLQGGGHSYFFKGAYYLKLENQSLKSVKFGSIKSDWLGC
Sequence of 26S proteasome non-ATPase regulatory subunit 14 (O00487 whole entry): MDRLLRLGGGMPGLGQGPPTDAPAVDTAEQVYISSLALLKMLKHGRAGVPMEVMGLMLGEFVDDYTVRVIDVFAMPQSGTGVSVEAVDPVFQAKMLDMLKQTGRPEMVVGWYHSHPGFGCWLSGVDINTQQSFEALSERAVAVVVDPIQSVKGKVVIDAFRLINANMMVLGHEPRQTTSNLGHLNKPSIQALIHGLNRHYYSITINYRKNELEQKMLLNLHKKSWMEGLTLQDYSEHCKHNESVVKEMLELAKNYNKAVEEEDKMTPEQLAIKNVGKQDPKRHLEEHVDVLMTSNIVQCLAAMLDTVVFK

**Q.** With `COc1cncc(-c2cnc3sc(NCCc4ccccn4)nn23)c1` as the compound, how does the IC50 (Interleukin-8) read?
**A.** 9.33 µM (active)

**Q.** Which results are given for `NC(Cc1ccc(C(F)(F)F)cc1)c1csc(Nc2nncc3ccccc23)n1` (stereo not given)?
**A.** AC50 [1]: 19.4 µM (active); AC50 [2]: 2.52 µM (active); AC50 [3]: 8.02 µM (active)

**Q.** Which results are given for `C/C(=N\NC(=O)c1ccc(OC2OCCOC2Oc2ccc(C(=O)N/N=C(\C)c3ccncc3)cc2)cc1)c1ccncc1` (stereo not given)?
**A.** IC50 [4]: 9.62 µM (active); IC50 [5]: > 100 µM (inactive); IC50 (Prothrombin): 41 µM (active); IC50 [6]: > 66.6 µM (inactive); IC50 [7]: > 80 µM (inactive); IC50 [8]: 8.52 µM (active); IC50 [9]: 13.2 µM (active); IC50 [10]: 13.6 µM (active)

**Q.** Which results are given for `N#CCCn1cc(/C=N/NC(N)=S)c(-c2ccc(-c3ccccc3)cc2)n1`?
**A.** EC50 [11]: 924 nM (active); EC50 [12]: 9.69 µM (active); IC50 [13]: 128 µM (inactive)
